These results are taken from ChEMBL document CHEMBL5465560, “Selectivity Literature for EUbOPEN Chemogenomic Library” (2024).

Test [1] deals with T1, Serine/threonine-protein kinase RIO1 (Homo sapiens) (UniProt Q9BRS2).
T1 sequence (whole entry): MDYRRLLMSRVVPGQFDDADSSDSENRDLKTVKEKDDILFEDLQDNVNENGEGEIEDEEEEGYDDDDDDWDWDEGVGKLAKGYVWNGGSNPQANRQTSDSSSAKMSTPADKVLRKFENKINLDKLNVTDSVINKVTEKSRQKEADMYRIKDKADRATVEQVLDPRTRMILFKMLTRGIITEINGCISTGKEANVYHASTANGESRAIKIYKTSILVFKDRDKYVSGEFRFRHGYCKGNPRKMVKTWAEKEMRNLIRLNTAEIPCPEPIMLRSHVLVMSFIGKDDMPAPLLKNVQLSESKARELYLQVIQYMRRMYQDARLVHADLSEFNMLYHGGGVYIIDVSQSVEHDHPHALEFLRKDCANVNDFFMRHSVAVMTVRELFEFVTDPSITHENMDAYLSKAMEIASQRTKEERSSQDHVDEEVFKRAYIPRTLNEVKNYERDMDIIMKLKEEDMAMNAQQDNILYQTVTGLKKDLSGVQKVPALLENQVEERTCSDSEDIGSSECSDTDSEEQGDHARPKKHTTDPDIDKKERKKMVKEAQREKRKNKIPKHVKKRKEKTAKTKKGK
Nature of the test: Selectivity interaction (KinomeScan (DiscoverX)) EUB0000595a RIOK1. The conditions noted are these: at 10 µM.

Test [2] addresses Casein kinase I isoform epsilon (Homo sapiens, UniProt P49674). As to the kind of experiment: Selectivity interaction (SelectScreen profiling (Invitrogen)) EUB0000607a CSNK1E. The conditions noted are these: at 2 µM.
The target in test [3] is T2, STE20-related kinase adapter protein alpha (Homo sapiens) (UniProt Q7RTN6).
T2 sequence (whole entry): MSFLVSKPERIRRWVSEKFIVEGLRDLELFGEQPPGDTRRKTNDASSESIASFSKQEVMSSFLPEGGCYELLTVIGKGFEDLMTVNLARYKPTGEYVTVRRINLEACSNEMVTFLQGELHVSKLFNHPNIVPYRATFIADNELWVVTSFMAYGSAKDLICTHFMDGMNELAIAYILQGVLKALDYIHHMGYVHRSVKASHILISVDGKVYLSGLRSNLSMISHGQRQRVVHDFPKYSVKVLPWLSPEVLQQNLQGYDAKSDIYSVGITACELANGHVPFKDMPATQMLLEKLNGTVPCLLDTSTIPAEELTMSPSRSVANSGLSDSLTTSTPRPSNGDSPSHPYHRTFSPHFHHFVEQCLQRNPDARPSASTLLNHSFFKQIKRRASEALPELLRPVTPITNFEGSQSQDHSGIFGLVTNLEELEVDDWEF
As to the kind of experiment: Selectivity interaction (ActivX KiNativ screen (kinase selectivity in THP-1 cell lysates)) EUB0000639a STRADA. The test is classed as subcellular. The conditions noted are these: lysate, at 1 µM.

In test [4] the target is Tyrosine-protein kinase JAK1 (Homo sapiens, UniProt P23458). As to the kind of experiment: Selectivity interaction (ActivX KiNativ screen (kinase selectivity in THP-1 cell lysates)) EUB0000639a JAK1. The test is classed as subcellular. The conditions noted are these: lysate, at 1 µM.
Sequence of Tyrosine-protein kinase JAK1 (P23458 whole entry): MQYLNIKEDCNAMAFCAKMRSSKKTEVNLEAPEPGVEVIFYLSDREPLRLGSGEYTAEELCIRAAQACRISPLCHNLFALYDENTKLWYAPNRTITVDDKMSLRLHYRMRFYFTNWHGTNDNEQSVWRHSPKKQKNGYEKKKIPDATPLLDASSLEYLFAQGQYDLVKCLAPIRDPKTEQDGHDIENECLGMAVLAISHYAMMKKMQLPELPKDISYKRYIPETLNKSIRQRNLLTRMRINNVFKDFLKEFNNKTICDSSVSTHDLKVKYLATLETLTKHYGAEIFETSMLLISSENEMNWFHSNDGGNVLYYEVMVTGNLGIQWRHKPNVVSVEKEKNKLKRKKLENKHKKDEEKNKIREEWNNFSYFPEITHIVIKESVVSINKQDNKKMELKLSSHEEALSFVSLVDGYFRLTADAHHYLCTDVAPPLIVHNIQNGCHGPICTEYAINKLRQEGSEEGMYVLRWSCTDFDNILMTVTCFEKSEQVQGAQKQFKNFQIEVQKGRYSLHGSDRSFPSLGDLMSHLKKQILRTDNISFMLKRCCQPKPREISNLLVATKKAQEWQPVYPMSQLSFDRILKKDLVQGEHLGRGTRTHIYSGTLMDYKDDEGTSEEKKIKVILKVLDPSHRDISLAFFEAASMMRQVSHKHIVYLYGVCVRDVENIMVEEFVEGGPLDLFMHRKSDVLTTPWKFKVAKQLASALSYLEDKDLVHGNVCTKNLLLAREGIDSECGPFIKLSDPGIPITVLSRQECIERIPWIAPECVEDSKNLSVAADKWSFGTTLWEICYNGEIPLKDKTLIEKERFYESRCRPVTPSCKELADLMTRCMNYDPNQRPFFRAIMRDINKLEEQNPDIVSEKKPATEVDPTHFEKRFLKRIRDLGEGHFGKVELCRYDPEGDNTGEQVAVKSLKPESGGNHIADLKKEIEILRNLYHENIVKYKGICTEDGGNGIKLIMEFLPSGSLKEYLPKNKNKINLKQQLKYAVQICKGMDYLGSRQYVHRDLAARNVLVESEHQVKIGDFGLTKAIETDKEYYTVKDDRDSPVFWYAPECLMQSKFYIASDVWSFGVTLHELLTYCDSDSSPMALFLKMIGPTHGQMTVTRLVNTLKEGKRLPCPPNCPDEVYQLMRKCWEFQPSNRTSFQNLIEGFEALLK
Test [5] concerns the target Mitogen-activated protein kinase kinase kinase 11 (Homo sapiens) (UniProt Q16584). Nature of the test: Selectivity interaction (Kinase panel (Invitrogen)) EUB0000639a MAP3K11. The conditions noted are these: at 200 nM.
In test [6] the target is Tyrosine-protein kinase Blk (Homo sapiens) (UniProt P51451). As to the kind of experiment: Selectivity interaction (KinomeScan (DiscoverX)) EUB0000045b BLK.
Sequence of Tyrosine-protein kinase Blk (Homo sapiens) (P51451 2-505 limits assumed): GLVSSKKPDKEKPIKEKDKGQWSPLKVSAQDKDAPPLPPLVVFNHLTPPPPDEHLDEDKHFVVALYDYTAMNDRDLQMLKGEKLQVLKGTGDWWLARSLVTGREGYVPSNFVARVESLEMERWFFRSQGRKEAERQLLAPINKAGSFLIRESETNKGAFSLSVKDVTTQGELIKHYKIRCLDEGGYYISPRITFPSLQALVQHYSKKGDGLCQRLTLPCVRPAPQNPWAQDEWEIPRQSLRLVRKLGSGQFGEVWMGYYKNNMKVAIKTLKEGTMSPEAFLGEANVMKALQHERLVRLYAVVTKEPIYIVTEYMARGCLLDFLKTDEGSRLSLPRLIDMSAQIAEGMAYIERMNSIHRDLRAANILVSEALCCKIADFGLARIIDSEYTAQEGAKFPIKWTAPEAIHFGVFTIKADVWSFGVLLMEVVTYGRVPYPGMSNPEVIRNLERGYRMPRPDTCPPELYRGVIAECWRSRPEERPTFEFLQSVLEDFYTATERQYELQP
Test [7] deals with 5-hydroxytryptamine receptor 2B (Homo sapiens, UniProt P41595). Nature of the test: Selectivity interaction (Safety Panel 44tm (Eurofins)) EUB0000162b HTR2B. The conditions noted are these: at 10 µM.
Sequence of 5-hydroxytryptamine receptor 2B (P41595 whole entry): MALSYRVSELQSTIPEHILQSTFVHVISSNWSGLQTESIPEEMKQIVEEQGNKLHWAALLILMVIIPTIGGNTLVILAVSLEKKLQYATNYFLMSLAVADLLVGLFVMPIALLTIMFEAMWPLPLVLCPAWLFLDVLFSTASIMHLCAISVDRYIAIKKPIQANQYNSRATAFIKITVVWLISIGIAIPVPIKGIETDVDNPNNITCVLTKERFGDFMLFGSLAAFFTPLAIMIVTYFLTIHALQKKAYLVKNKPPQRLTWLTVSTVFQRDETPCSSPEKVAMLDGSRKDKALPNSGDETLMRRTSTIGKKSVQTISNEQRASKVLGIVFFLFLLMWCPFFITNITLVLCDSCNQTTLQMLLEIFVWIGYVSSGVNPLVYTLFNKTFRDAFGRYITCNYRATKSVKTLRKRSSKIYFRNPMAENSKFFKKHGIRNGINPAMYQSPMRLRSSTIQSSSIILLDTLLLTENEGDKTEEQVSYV
Test [8] deals with T3, Tyrosine-protein kinase Mer (Homo sapiens) (UniProt Q12866).
T3 sequence (whole entry): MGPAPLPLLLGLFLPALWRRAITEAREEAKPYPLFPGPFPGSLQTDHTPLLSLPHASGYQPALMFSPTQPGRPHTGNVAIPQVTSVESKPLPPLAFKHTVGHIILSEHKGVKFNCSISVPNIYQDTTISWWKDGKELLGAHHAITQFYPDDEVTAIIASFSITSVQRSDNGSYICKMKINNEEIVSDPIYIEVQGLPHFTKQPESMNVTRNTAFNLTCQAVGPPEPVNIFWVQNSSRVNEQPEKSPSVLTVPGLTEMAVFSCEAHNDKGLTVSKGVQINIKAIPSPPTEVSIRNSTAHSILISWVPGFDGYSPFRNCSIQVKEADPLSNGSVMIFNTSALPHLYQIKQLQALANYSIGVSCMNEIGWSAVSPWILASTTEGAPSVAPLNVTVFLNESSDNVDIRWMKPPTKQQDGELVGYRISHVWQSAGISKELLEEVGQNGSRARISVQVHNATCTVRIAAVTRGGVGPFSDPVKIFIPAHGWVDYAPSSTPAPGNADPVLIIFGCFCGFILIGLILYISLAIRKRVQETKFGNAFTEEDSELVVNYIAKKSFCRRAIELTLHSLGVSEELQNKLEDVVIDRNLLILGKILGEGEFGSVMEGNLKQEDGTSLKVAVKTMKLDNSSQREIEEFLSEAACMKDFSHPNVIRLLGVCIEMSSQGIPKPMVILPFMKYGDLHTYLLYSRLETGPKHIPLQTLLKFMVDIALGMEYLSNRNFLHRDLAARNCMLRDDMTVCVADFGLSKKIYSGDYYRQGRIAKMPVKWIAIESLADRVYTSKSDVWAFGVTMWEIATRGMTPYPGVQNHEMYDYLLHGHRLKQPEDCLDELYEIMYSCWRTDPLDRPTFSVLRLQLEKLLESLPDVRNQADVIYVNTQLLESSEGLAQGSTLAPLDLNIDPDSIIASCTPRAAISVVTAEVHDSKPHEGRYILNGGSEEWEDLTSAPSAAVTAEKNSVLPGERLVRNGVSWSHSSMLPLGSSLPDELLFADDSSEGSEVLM
Nature of the test: Selectivity interaction (ProQinase) EUB0000171b MERTK.

Test [9] addresses LIM domain kinase 2 (Homo sapiens) (UniProt P53671). Nature of the test: Selectivity interaction (KinomeScan (DiscoverX)) EUB0000655a LIMK2. The conditions noted are these: at 10 µM.
Test [10] has as its target Cyclin-dependent kinase-like 3 (Homo sapiens) (UniProt Q8IVW4). Nature of the test: Selectivity interaction (KinomeScan (DiscoverX)) EUB0000092b CDKL3. The conditions noted are these: at 10 µM.

Sequence of LIM domain kinase 2 (Homo sapiens) (P53671 whole entry, looked up, the tested form may be a part): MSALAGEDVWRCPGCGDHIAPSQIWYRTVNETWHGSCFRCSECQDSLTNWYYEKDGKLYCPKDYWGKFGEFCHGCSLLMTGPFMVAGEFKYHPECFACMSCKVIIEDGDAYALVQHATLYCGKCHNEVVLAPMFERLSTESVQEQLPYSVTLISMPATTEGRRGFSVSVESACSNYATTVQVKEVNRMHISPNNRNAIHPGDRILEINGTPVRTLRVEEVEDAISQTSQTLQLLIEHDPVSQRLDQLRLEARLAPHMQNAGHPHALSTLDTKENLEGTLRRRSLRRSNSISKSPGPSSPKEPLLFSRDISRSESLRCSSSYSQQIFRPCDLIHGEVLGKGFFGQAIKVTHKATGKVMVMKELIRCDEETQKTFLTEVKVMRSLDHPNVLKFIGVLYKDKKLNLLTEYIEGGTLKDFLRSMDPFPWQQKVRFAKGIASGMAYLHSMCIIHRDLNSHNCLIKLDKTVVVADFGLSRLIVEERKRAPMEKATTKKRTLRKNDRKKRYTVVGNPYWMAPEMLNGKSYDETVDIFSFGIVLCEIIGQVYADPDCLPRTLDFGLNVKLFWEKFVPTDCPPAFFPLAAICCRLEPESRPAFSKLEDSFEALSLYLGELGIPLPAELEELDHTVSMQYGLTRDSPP
Sequence of Cyclin-dependent kinase-like 3 (Homo sapiens) (Q8IVW4 whole entry, looked up): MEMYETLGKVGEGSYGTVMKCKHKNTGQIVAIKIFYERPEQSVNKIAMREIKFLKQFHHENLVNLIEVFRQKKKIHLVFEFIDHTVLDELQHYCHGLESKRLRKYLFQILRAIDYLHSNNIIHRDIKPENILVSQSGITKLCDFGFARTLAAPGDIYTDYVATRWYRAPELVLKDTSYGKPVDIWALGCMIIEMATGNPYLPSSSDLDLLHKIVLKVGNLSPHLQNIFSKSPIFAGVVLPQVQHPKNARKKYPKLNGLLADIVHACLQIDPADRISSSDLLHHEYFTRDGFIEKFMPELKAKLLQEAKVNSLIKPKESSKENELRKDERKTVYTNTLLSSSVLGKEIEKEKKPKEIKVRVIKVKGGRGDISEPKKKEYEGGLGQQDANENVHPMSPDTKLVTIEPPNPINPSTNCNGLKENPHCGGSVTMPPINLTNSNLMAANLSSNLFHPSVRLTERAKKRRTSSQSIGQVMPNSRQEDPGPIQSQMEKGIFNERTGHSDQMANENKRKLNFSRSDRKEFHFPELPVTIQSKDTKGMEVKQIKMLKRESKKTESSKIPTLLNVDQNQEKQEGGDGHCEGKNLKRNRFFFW
Sequence of Casein kinase I isoform epsilon (P49674 whole entry, looked up, canonical isoform): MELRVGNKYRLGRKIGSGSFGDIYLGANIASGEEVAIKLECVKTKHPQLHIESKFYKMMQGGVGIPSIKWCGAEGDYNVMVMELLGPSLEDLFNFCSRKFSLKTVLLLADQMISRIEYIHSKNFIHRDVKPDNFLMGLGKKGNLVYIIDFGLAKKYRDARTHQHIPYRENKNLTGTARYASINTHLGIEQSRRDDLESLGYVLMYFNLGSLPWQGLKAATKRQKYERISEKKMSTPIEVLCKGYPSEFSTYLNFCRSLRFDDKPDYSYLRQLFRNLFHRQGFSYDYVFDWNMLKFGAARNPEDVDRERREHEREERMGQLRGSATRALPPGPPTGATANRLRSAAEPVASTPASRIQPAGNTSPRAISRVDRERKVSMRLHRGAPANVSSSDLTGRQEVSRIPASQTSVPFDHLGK
Sequence of Mitogen-activated protein kinase kinase kinase 11 (Homo sapiens) (Q16584 whole entry, looked up): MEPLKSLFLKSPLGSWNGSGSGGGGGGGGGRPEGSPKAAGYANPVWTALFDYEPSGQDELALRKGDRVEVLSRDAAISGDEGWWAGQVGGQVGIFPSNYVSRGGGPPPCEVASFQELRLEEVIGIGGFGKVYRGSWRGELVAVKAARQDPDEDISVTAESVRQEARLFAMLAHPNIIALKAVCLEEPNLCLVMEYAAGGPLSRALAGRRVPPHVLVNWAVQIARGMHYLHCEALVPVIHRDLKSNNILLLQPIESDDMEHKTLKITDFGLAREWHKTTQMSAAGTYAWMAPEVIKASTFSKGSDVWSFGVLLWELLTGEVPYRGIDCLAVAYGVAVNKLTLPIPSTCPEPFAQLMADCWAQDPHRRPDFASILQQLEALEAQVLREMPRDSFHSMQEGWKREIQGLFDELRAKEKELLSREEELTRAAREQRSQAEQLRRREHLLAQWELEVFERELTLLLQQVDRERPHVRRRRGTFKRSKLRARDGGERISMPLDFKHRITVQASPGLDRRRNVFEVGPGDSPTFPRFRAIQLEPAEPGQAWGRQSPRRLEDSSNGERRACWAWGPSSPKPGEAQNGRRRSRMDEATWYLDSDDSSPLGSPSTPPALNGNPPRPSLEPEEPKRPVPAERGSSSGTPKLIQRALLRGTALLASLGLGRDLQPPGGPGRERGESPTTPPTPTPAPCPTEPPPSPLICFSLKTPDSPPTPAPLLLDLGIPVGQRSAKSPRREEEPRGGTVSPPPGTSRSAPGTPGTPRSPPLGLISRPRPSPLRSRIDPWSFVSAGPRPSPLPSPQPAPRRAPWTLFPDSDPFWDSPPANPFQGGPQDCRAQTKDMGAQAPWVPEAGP

As to `COCC(=O)NC/C=C/c1ccc2ncnc(Nc3ccc(Oc4ccc(C)nc4)c(C)c3)c2c1` [CP-724714], the % of control in test [1] was found to be 91%.
`CNC(=O)Nc1ccc(-c2nc(N3CC4CCC(C3)O4)c3cnn(C4CCC5(CC4)OCCO5)c3n2)cc1`: the % of inhibition in test [2] is 4%.
With `CC[C@@H]1[C@H](F)C(=O)N[C@@H]1COc1nccc2cc(C(N)=O)c(OC)cc12` [ZIMLOVISERTIB], the % of inhibition was -7.6% in [3], -1.3% in [4] and 0.995% in [5].
Consider `C=CC(=O)Nc1cc(-n2c(=O)ccc3cnc4ccc(-c5ccc(NS(C)(=O)=O)cc5)cc4c32)ccc1C`, for which the % of control in test [6] (at 1 µM) was 40%; in test [6] (at 10 µM), 4.8%.
In test [7], `CN(C)C(=O)Cn1cc(-c2ccc(-c3cncc4ccccc34)cc2)cn1` gave a % of control of 34%.
Consider `C=CC(=O)Nc1cccc(C(=O)Nc2ccc(Nc3cc(-c4[nH]c(SC)nc4C)ccn3)cc2)c1`, for which the values for the % of control in test [8] (at 1 µM) and in test [8] (at 5 µM) were 76% and 41%, respectively.
Consider `CN(C)CCOc1ccc(-c2nc(-c3ccncc3)c(-c3ccc4c(c3)CC/C4=N\O)[nH]2)cc1`, for which the % of control in test [9] came out at 79%.
As for `CCC(=O)N1CCN(c2ccc(-n3c(=O)ccc4cnc5ccc(-c6cnc7ccccc7c6)cc5c43)cc2C(F)(F)F)CC1`, in test [10], the % of control amounted to 92%.
